PubChem BioAssay AID1963973 (Molecular Pharmacology Branch, DTP, NCI, 2024)

Test system: 883617-216-R-J1-PDC tumor spheroids, viability
Experiment: Anticancer human tumor 883617-216-R-J1-PDC patient-derived bladder carcinoma cell line growth inhibition [PI3K]
Conditions: spheroids with HUVEC and MSC; for IC50: curve of first compound; for viability, T/C: stronger effect = lower value
Method in brief: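 We assembled tumor spheroids that included a stromal compartment of HUVEC and MSCs, then exposed them to targeted agents alone and together with PI3K pathway inhibitors. Concentration series descended by half-log from clinically achievable Cmax levels. Viability served as the endpoint.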

[1] = second compound 0.00316 µM, first compound 0.0316 µM
[2] = second compound 0.00316 µM, first compound 0.1 µM
[3] = second compound 0.00316 µM, first compound 0.316 µM
[4] = second compound 0.00316 µM, first compound 1 µM
[5] = second compound 0.00316 µM, first compound 3.16 µM
[6] = second compound 0.00316 µM, first compound 10 µM
[7] = second compound 0.01 µM, first compound 0.0316 µM
[8] = second compound 0.01 µM, first compound 0.1 µM
[9] = second compound 0.01 µM, first compound 0.316 µM
[10] = second compound 0.01 µM, first compound 1 µM
[11] = second compound 0.01 µM, first compound 3.16 µM
[12] = second compound 0.01 µM, first compound 10 µM
[13] = second compound 0.0316 µM, first compound 0.0316 µM
[14] = second compound 0.0316 µM, first compound 0.1 µM
[15] = second compound 0.0316 µM, first compound 0.316 µM
[16] = second compound 0.0316 µM, first compound 1 µM
[17] = second compound 0.0316 µM, first compound 3.16 µM
[18] = second compound 0.0316 µM, first compound 10 µM
[19] = second compound 0.1 µM, first compound 0.0316 µM
[20] = second compound 0.1 µM, first compound 0.1 µM
[21] = second compound 0.1 µM, first compound 0.316 µM
[22] = second compound 0.1 µM, first compound 1 µM
[23] = second compound 0.1 µM, first compound 3.16 µM
[24] = second compound 0.1 µM, first compound 10 µM
[25] = second compound 0.316 µM, first compound 0.0316 µM
[26] = second compound 0.316 µM, first compound 0.1 µM
[27] = second compound 0.316 µM, first compound 0.316 µM
[28] = second compound 0.316 µM, first compound 1 µM
[29] = second compound 0.316 µM, first compound 3.16 µM
[30] = second compound 0.316 µM, first compound 10 µM
[31] = second compound 1 µM, first compound 0.0316 µM
[32] = second compound 1 µM, first compound 0.1 µM
[33] = second compound 1 µM, first compound 0.316 µM
[34] = second compound 1 µM, first compound 1 µM
[35] = second compound 1 µM, first compound 3.16 µM
[36] = second compound 1 µM, first compound 10 µM
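Note: spheroids exposed to agents for 7 days before the viability read.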

Which IC50 (second compound 0.00316 µM) does the source give for `CC1(C)CCC(CN2CCN(c3ccc(C(=O)NS(=O)(=O)c4ccc(NCC5CCOCC5)c([N+](=O)[O-])c4)c(Oc4cnc5[nH]ccc5c4)c3)CC2)=C(c2ccc(Cl)cc2)C1` + CC(Nc1ccc2c(c1)OCCn1cc(N3C(=O)OCC3C(F)F)nc1-2)C(N)=O here?
Its IC50 is 5.33 µM.

What about the IC50 (second compound 0.01 µM) of the same compound?
Its IC50 is 4.58 µM.

What about the IC50 (second compound 0.0316 µM) of the same compound?
Its IC50 is 3.77 µM.

What about the IC50 (second compound 0.1 µM) of the same compound?
The IC50 was less than 0.0316 µM.

What about the IC50 (second compound 0.316 µM) of the same compound?
The IC50 was less than 0.0316 µM.

And the IC50 (second compound 1 µM)?
The IC50 was less than 0.0316 µM.

And the viability, T/C [1]?
The viability, T/C was 83.5%.

What about the viability, T/C [2] of the same compound?
The viability, T/C was 61.8%.

What about the viability, T/C [3] of the same compound?
The viability, T/C was 97.3%.

And the viability, T/C [4]?
The viability, T/C was 107%.

What about the viability, T/C [5] of the same compound?
Its viability, T/C is 90.2%.

And the viability, T/C [6]?
Its viability, T/C is 4.2%.

And the viability, T/C [7]?
The viability, T/C was 86.6%.

What about the viability, T/C [8] of the same compound?
Its viability, T/C is 74.8%.

What about the viability, T/C [9] of the same compound?
Its viability, T/C is 87.8%.

What about the viability, T/C [10] of the same compound?
Its viability, T/C is 82.8%.

What about the viability, T/C [11] of the same compound?
Its viability, T/C is 71.8%.

What about the viability, T/C [12] of the same compound?
Its viability, T/C is 3.91%.

And the viability, T/C [13]?
Its viability, T/C is 66.7%.

What about the viability, T/C [14] of the same compound?
The viability, T/C was 51.6%.

And the viability, T/C [15]?
The viability, T/C was 65.5%.

What about the viability, T/C [16] of the same compound?
The viability, T/C was 65.4%.

And the viability, T/C [17]?
The viability, T/C was 57.8%.

And the viability, T/C [18]?
Its viability, T/C is 5.24%.

What about the viability, T/C [19] of the same compound?
The viability, T/C was 29.4%.

And the viability, T/C [20]?
Its viability, T/C is 36.4%.

And the viability, T/C [21]?
Its viability, T/C is 41.5%.

What about the viability, T/C [22] of the same compound?
The viability, T/C was 45.8%.

And the viability, T/C [23]?
The viability, T/C was 47.5%.

And the viability, T/C [24]?
The viability, T/C was 2.96%.

What about the viability, T/C [25] of the same compound?
The viability, T/C was 21.2%.

What about the viability, T/C [26] of the same compound?
The viability, T/C was 22.1%.

What about the viability, T/C [27] of the same compound?
The viability, T/C was 22.1%.

And the viability, T/C [28]?
The viability, T/C was 25.4%.

What about the viability, T/C [29] of the same compound?
Its viability, T/C is 26.4%.

And the viability, T/C [30]?
The viability, T/C was 2.64%.

And the viability, T/C [31]?
The viability, T/C was 17.2%.

And the viability, T/C [32]?
The viability, T/C was 13%.

And the viability, T/C [33]?
The viability, T/C was 15.3%.

And the viability, T/C [34]?
Its viability, T/C is 14.3%.

What about the viability, T/C [35] of the same compound?
The viability, T/C was 21.6%.

And the viability, T/C [36]?
The viability, T/C was 1.47%.

`C[C@@H](NC(=O)c1ncnc(N)c1Cl)c1ncc(C(=O)Nc2cc(C(F)(F)F)c(Cl)cn2)s1` + CC(Nc1ccc2c(c1)OCCn1cc(N3C(=O)OCC3C(F)F)nc1-2)C(N)=O was tested. Which IC50 (second compound 0.00316 µM) did it give?
Its IC50 is greater than 10 µM.

And the IC50 (second compound 0.01 µM)?
The IC50 was greater than 10 µM.

And the IC50 (second compound 0.0316 µM)?
The IC50 was 6.34 µM.

And the IC50 (second compound 0.1 µM)?
The IC50 was 0.366 µM.

And the IC50 (second compound 0.316 µM)?
The IC50 was less than 0.0316 µM.

And the IC50 (second compound 1 µM)?
The IC50 was less than 0.0316 µM.

And the viability, T/C [1]?
The viability, T/C was 86.3%.

What about the viability, T/C [2] of the same compound?
Its viability, T/C is 78.3%.

What about the viability, T/C [3] of the same compound?
Its viability, T/C is 88.9%.

And the viability, T/C [4]?
The viability, T/C was 99.8%.

What about the viability, T/C [5] of the same compound?
The viability, T/C was 80%.

And the viability, T/C [6]?
Its viability, T/C is 70.8%.

What about the viability, T/C [7] of the same compound?
The viability, T/C was 81.2%.

What about the viability, T/C [8] of the same compound?
Its viability, T/C is 89.4%.

What about the viability, T/C [9] of the same compound?
Its viability, T/C is 74.6%.

And the viability, T/C [10]?
The viability, T/C was 86.2%.

What about the viability, T/C [11] of the same compound?
The viability, T/C was 70.6%.

What about the viability, T/C [12] of the same compound?
Its viability, T/C is 63.6%.

And the viability, T/C [13]?
The viability, T/C was 72.2%.

And the viability, T/C [14]?
Its viability, T/C is 73.6%.

What about the viability, T/C [15] of the same compound?
Its viability, T/C is 65.3%.

What about the viability, T/C [16] of the same compound?
Its viability, T/C is 58.8%.

And the viability, T/C [17]?
Its viability, T/C is 55.4%.

What about the viability, T/C [18] of the same compound?
The viability, T/C was 47.1%.

What about the viability, T/C [19] of the same compound?
Its viability, T/C is 42.4%.

What about the viability, T/C [20] of the same compound?
Its viability, T/C is 49.2%.

What about the viability, T/C [21] of the same compound?
The viability, T/C was 61.8%.

What about the viability, T/C [22] of the same compound?
The viability, T/C was 42.3%.

And the viability, T/C [23]?
The viability, T/C was 36.7%.

What about the viability, T/C [24] of the same compound?
Its viability, T/C is 32.3%.

What about the viability, T/C [25] of the same compound?
Its viability, T/C is 26.1%.

And the viability, T/C [26]?
Its viability, T/C is 22.4%.

What about the viability, T/C [27] of the same compound?
The viability, T/C was 26.1%.

And the viability, T/C [28]?
The viability, T/C was 27.4%.

And the viability, T/C [29]?
Its viability, T/C is 27.7%.

And the viability, T/C [30]?
Its viability, T/C is 17.9%.

What about the viability, T/C [31] of the same compound?
Its viability, T/C is 18.2%.

And the viability, T/C [32]?
The viability, T/C was 15.2%.

And the viability, T/C [33]?
The viability, T/C was 16.3%.

And the viability, T/C [34]?
The viability, T/C was 16.9%.

And the viability, T/C [35]?
The viability, T/C was 16.6%.

And the viability, T/C [36]?
The viability, T/C was 12.5%.
